From US9227971B2, “Pyrazolo[1,5-a]pyrimidine compounds as mTOR inhibitors” (Merck Sharp & Dohme Corp., priority 2010, dated 2016)
Like-named read-outs stand apart in the source and are kept apart here.

Columns and labels:
[1] = tested on: phosphorylated 4E-BP1 Thr37/46 (p4E-BP1 Thr37/46), mTORC1 activity, PC3 cells; assay: mTOR target engagement assay, immunofluorescent cell-based, p4E-BP1 Thr37/46 readout (mTORC1 activity); conditions: Homo sapiens, read-out: p4E-BP1 Thr37/46 IC50
Outline: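 Read-out is fluorescence intensity of immunostained p4E-BP1 Thr37/46 in fixed PC3 cells, fitted to a logistic curve for IC50 with DMSO-only wells as top. Cells had been exposed to serial compound dilutions for ninety minutes at 37° C in 5% FBS medium with 0.25% DMSO.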

[2] = tested on: phosphorylated AKT Ser473 (pAKT S473), mTORC2 activity, PC3 cells; assay: mTOR target engagement assay, immunofluorescent cell-based, pAKT S473 readout (mTORC2 activity); conditions: Homo sapiens
Outline: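 After blocking, cells were stained overnight at 4 °C with anti-pAKT S473 antibody, then a fluorescent secondary; inhibition was read as reduced fluorescence intensity.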

[3] = PC-3, PC3 cells, compound treatment ninety minutes at 37° C.

CS(=O)(=O)c1c([C@@H]2C[C@H]3CC[C@@H](C2)N3C(=O)CO)nc2c(-c3ccc(-c4ncc[nH]4)cc3)cnn2c1N [Compound 6.35, 1-((1R,3s,5S)-3-(3-(4-(1H-imidazol-2-yl)phenyl)-7-amino-6-(methylsulfonyl)pyrazolo [1,5-a]pyrimidin-5-yl)-8-azabicyclo[3.2.1]octan-8-yl)-2-hydroxyethanone]
IC50 ([1]; PC-3, Table 6-1, PC3 cells): 0.1 to 1 µM
IC50 ([2]; PC-3, Table 6-1, PC3 cells): 0.001 to 0.1 µM

Nc1c(C2CC2)c([C@@H]2C[C@H]3CC[C@@H](C2)N3C(=O)c2nnc[nH]2)nc2c(-c3ccc(-c4ncc[nH]4)c(F)c3)cnn12 [Compound 6.36, ((1R,3s,5S)-3-(7-amino-6-cyclopropyl-3-(3-fluoro-4-(1H-imidazol-2-yl)phenyl)pyrazolo[1,5-a]pyrimidin-5-yl)-8-azabicyclo[3.2.1]octan-8-yl)(4H-1,2,4-triazol-3-yl)methanone]
IC50 ([1]; PC-3, Table 6-1, PC3 cells): 0.001 to 0.1 µM
IC50 ([2]; PC-3, Table 6-1, PC3 cells): 0.001 to 0.1 µM

Nc1c(C2CC2)c([C@@H]2C[C@H]3CC[C@@H](C2)N3C(=O)CO)nc2c(-c3ccc(-c4ncc[nH]4)c(F)c3)cnn12 [Compound 6.37, 1-((1R,3s,5S)-3-(7-amino-6-cyclopropyl-3-(3-fluoro-4-(1H-imidazol-2-yl)phenyl)pyrazolo[1,5-a]pyrimidin-5-yl)-8-azabicyclo[3.2.1]octan-8-yl)-2-hydroxyethanone]
IC50 ([1]; PC-3, Table 6-1, PC3 cells): 0.001 to 0.1 µM
IC50 ([2]; PC-3, Table 6-1, PC3 cells): 0.001 to 0.1 µM

CC(=O)c1c([C@@H]2C[C@H]3CC[C@@H](C2)N3C(=O)CO)nc2c(-c3ccc(-c4ncc(C)[nH]4)c(F)c3)cnn2c1N [Compound 6.38, 1-((1R,3s,5S)-3-(6-acetyl-7-amino-3-(3-fluoro-4-(5-methyl-1H-imidazol-2-yl)phenyl)pyrazolo[1,5-a]pyrimidin-5-yl)-8-azabicyclo[3.2.1]octan-8-yl)-2-hydroxyethanone]
IC50 ([1]; PC-3, Table 6-1, PC3 cells): 0.1 to 1 µM
IC50 ([2]; PC-3, Table 6-1, PC3 cells): 0.001 to 0.1 µM

CC(=O)c1c([C@@H]2C[C@H]3CC[C@@H](C2)N3C(=O)c2nnc[nH]2)nc2c(-c3ccc(-c4ncc(C)[nH]4)c(F)c3)cnn2c1N [Compound 6.39, 1-(5-((1R,3s,5S)-8-(4H-1,2,4-triazole-3-carbonyl)-8-azabicyclo[3.2.1]octan-3-yl)-7-amino-3-(3-fluoro-4-(5-methyl-1H-imidazol-2-yl)phenyl)pyrazolo[1,5-a]pyrimidin-6-yl)ethanone]
IC50 ([1]; PC-3, Table 6-1, PC3 cells): 0.1 to 1 µM
IC50 ([2]; PC-3, Table 6-1, PC3 cells): 0.001 to 0.1 µM

CC(=O)c1c([C@@H]2C[C@H]3CC[C@@H](C2)N3C(=O)CO)nc2c(-c3ccc(-c4ncc[nH]4)c(F)c3)cnn2c1N [Compound 6.40, 1-((1R,3s,5S)-3-(6-acetyl-7-amino-3-(3-fluoro-4-(1H-imidazol-2-yl)phenyl)pyrazolo[1,5-a]pyrimidin-5-yl)-8-azabicyclo[3.2.1]octan-8-yl)-2-hydroxyethanone]
IC50 ([1]; PC-3, Table 6-1, PC3 cells): 0.001 to 0.1 µM
IC50 ([2]; PC-3, Table 6-1, PC3 cells): 0.001 to 0.1 µM

CC(=O)c1c([C@@H]2C[C@H]3CC[C@@H](C2)N3C(=O)c2nnc[nH]2)nc2c(-c3ccc(-c4ncc[nH]4)c(F)c3)cnn2c1N [Compound 6.41, 1-(5-((1R,3s,5S)-8-(4H-1,2,4-triazole-3-carbonyl)-8-azabicyclo[3.2.1]octan-3-yl)-7-amino-3-(3-fluoro-4-(1H-imidazol-2-yl)phenyl)pyrazolo[1,5-a]pyrimidin-6-yl)ethanone]
IC50 ([1]; PC-3, Table 6-1, PC3 cells): 0.001 to 0.1 µM
IC50 ([2]; PC-3, Table 6-1, PC3 cells): 0.001 to 0.1 µM

CC(=O)c1c([C@@H]2C[C@H]3CC[C@@H](C2)N3C(=O)CO)nc2c(-c3ccc(-c4ncc[nH]4)cc3)cnn2c1N [Compound 6.42, 1-((1R,3s,5S)-3-(3-(4-(1H-imidazol-2-yl)phenyl)-6-acetyl-7-aminopyrazolo[1,5-a]pyrimidin-5-yl)-8-azabicyclo[3.2.1]octan-8-yl)-2-hydroxyethanone]
IC50 ([1]; PC-3, Table 6-1, PC3 cells): 0.001 to 0.1 µM
IC50 ([2]; PC-3, Table 6-1, PC3 cells): 0.001 to 0.1 µM

CC(=O)c1c([C@@H]2C[C@H]3CC[C@@H](C2)N3C(=O)c2nnc[nH]2)nc2c(-c3ccc(-c4ncc[nH]4)cc3)cnn2c1N [Compound 6.43, 1-(3-(4-(1H-imidazol-2-yl)phenyl)-5-((1R,3s,5S)-8-(4H-1,2,4-triazole-3-carbonyl)-8-azabicyclo[3.2.1]octan-3-yl)-7-aminopyrazolo[1,5-a]pyrimidin-6-yl)ethanone]
IC50 ([1]; PC-3, Table 6-1, PC3 cells): 0.001 to 0.1 µM
IC50 ([2]; PC-3, Table 6-1, PC3 cells): 0.001 to 0.1 µM

CC(=O)c1c([C@@H]2C[C@H]3CC[C@@H](C2)N3C(=O)C(C)(CO)CO)nc2c(-c3ccc(-c4ncc[nH]4)nc3)cnn2c1N [Compound 6.46, 1-((1R,3s,5S)-3-(3-(6-(1H-imidazol-2-yl)pyridin-3-yl)-6-acetyl-7-aminopyrazolo[1,5-a]pyrimidin-5-yl)-8-azabicyclo[3.2.1]octan-8-yl)-3-hydroxy-2-(hydroxymethyl)-2-methylpropan-1-one]
IC50 ([1]; PC-3, Table 6-1, PC3 cells): 0.1 to 1 µM
IC50 ([2]; PC-3, Table 6-1, PC3 cells): 0.1 to 1 µM

CC(=O)c1c([C@@H]2C[C@H]3CC[C@@H](C2)N3C(=O)c2nnc[nH]2)nc2c(-c3ccc(CO)nc3)cnn2c1N [Compound 7.1, 1-(5-((1R,3s,5S)-8-(4H-1,2,4-triazole-3-carbonyl)-8-azabicyclo[3.2.1]octan-3-yl)-7-amino-3-(6-(hydroxymethyl)pyridin-3-yl)pyrazolo[1,5-a]pyrimidin-6-yl)ethanone]
IC50 [1, 3]: 0.001 to 0.1 µM
IC50 [2, 3]: 0.001 to 0.1 µM

CCC(O)c1ccc(-c2cnn3c(N)c(C(C)=O)c([C@@H]4C[C@H]5CC[C@@H](C4)N5C(=O)c4nnc[nH]4)nc23)cn1 (stereo partly drawn) [Compound 7.3]
IC50 [1, 3]: 0.1 to 1 µM
IC50 [2, 3]: 0.001 to 0.1 µM

CC(=O)c1c([C@@H]2C[C@H]3CC[C@@H](C2)N3C(=O)c2nnc[nH]2)nc2c(-c3ccc(C(C)O)nc3)cnn2c1N (stereo partly drawn) [Compound 7.4, 1-(5-((1R,3s,5S)-8-(4H-1,2,4-triazole-3-carbonyl)-8-azabicyclo[3.2.1]octan-3-yl)-7-amino-3-(6-(1-hydroxyethyl)pyridin-3-yl)pyrazolo[1,5-a]pyrimidin-6-yl)ethanone]
IC50 [1, 3]: 0.001 to 0.1 µM
IC50 [2, 3]: 0.001 to 0.1 µM

CC(=O)c1c([C@@H]2C[C@H]3CC[C@@H](C2)N3C(=O)c2ncn[nH]2)nc2c(-c3ccc(C(C)(C)O)nc3)cnn2c1N [Compound 7.5, 1-(5-((1R,3s,5S)-8-(1H-1,2,4-triazole-5-carbonyl)-8-azabicyclo[3.2.1]octan-3-yl)-7-amino-3-(6-(2-hydroxypropan-2-yl)pyridin-3-yl)pyrazolo[1,5-a]pyrimidin-6-yl)ethanone]
IC50 [1, 3]: 0.001 to 0.1 µM
IC50 [2, 3]: 0.001 to 0.1 µM

CC(=O)c1c([C@@H]2C[C@H]3CC[C@@H](C2)N3C(=O)c2nnc[nH]2)nc2c(-c3ccc(C(O)CC(C)C)nc3)cnn2c1N (stereo partly drawn) [Compound 7.6, 1-(5-((1R,3s,5S)-8-(4H-1,2,4-triazole-3-carbonyl)-8-azabicyclo[3.2.1]octan-3-yl)-7-amino-3-(6-(1-hydroxy-3-methylbutyl)pyridin-3-yl)pyrazolo[1,5-a]pyrimidin-6-yl)ethanone]
IC50 [1, 3]: 0.1 to 1 µM
IC50 [2, 3]: 1 to 10 µM

CC(=O)c1c([C@@H]2C[C@H]3CC[C@@H](C2)N3C(=O)CO)nc2c(-c3ccc(C(C)(C)O)nc3)cnn2c1N [Compound 7.8, 1-((1R,3s,5S)-3-(6-acetyl-7-amino-3-(6-(2-hydroxypropan-2-yl)pyridin-3-yl)pyrazolo[1,5-a]pyrimidin-5-yl)-8-azabicyclo[3.2.1]octan-8-yl)-2-hydroxyethanone]
IC50 [1, 3]: 0.1 to 1 µM
IC50 [2, 3]: 0.1 to 1 µM

CC(=O)c1c([C@@H]2C[C@H]3CC[C@@H](C2)N3C(=O)c2nnc(C)[nH]2)nc2c(-c3ccc(C(C)(C)O)nc3)cnn2c1N [Compound 7.9, 1-(7-amino-3-(6-(2-hydroxypropan-2-yl)pyridin-3-yl)-5-((1R,3s,5S)-8-(5-methyl-4H-1,2,4-triazole-3-carbonyl)-8-azabicyclo[3.2.1]octan-3-yl)pyrazolo[1,5-a]pyrimidin-6-yl)ethanone]
IC50 [1, 3]: 0.1 to 1 µM
IC50 [2, 3]: 0.1 to 1 µM

CC(=O)c1c([C@@H]2C[C@H]3CC[C@@H](C2)N3C(=O)c2cnn[nH]2)nc2c(-c3ccc(C(C)(C)O)nc3)cnn2c1N [Compound 7.10, 1-(5-((1R,3s,5S)-8-(1H-1,2,3-triazole-5-carbonyl)-8-azabicyclo[3.2.1]octan-3-yl)-7-amino-3-(6-(2-hydroxypropan-2-yl)pyridin-3-yl)pyrazolo[1,5-a]pyrimidin-6-yl)ethanone]
IC50 [1, 3]: 0.1 to 1 µM
IC50 [2, 3]: 0.1 to 1 µM

CC(=O)c1c([C@@H]2C[C@H]3CC[C@@H](C2)N3C(=O)c2cc[nH]n2)nc2c(-c3ccc(C(C)(C)O)nc3)cnn2c1N [Compound 7.11, 1-(5-((1R,3s,5S)-8-(1H-pyrazole-3-carbonyl)-8-azabicyclo[3.2.1]octan-3-yl)-7-amino-3-(6-(2-hydroxypropan-2-yl)pyridin-3-yl)pyrazolo[1,5-a]pyrimidin-6-yl)ethanone]
IC50 [1, 3]: 0.1 to 1 µM
IC50 [2, 3]: 0.001 to 0.1 µM

CC(=O)c1c([C@@H]2C[C@H]3CC[C@@H](C2)N3C(=O)c2cn[nH]c2)nc2c(-c3ccc(C(C)(C)O)nc3)cnn2c1N [Compound 7.12, 1-(5-((1R,3s,5S)-8-(1H-pyrazole-4-carbonyl)-8-azabicyclo[3.2.1]octan-3-yl)-7-amino-3-(6-(2-hydroxypropan-2-yl)pyridin-3-yl)pyrazolo[1,5-a]pyrimidin-6-yl)ethanone]
IC50 [1, 3]: 0.1 to 1 µM
IC50 [2, 3]: 0.1 to 1 µM

CC(=O)c1c([C@@H]2C[C@H]3CC[C@@H](C2)N3C(=O)c2nnc(N)[nH]2)nc2c(-c3ccc(C(C)(C)O)nc3)cnn2c1N [Compound 7.13, 1-(7-amino-5-((1R,3s,5S)-8-(5-amino-4H-1,2,4-triazole-3-carbonyl)-8-azabicyclo[3.2.1]octan-3-yl)-3-(6-(2-hydroxypropan-2-yl)pyridin-3-yl)pyrazolo[1,5-a]pyrimidin-6-yl)ethanone]
IC50 [1, 3]: 0.1 to 1 µM
IC50 [2, 3]: 0.1 to 1 µM
